Results taken from patent US20020137781A1, “Preparation and use of enantiomer-pure 2,4-disubstituted oxazolines” (priority 1999, published 2002).
Values joined by “and” are separate entries in the source; they are usually repeats but may differ in a detail not shown here. Equal values may be shown once.

Test system: Dermanyssus gallinae
Test: Comparative in vitro effect on Dermanyssus gallinae
Details: for Type of activity: at the EC100 of the same table line; for EC100 (minimum dosage to reach 100% mortality): fed adult female mites, evaluated after 5 days
Protocol: 15 fed adult female mites of the genus Dermanyssus gallinae fixed on a plastic adhesive film are brought into contact with 50 μl of an aqueous suspension or emulsion of the test substance. The test is carried out with concentrations of 32, 10, 3.2, 1.0, 0.32 to 0.1 ppm. After drying, the film is stuck onto a glass disc. This creates a kind of air bubble around each mite, the lower surface of which is formed by the glass disc and the upper surface by a bulging of the adhesive film. This bubble contains sufficient air for the mite to avoid suffocating. After 5 days, the effect of the test substance is evaluated with the aid of a stereo-microscope by assessing the effect on mortality, egg deposition, egg quality, hatching rate, pupation rate, and development of protonymphs according to the following 4 criteria:
1. if 9 to 10 mites are dead, this indicates a lethal effect (M);
3. if 2 or more mites survive and produce eggs, but no larvae hatch from these eggs and no protonymphs develop, this indicates a development-inhibiting effect (H);
4. if 2 or more mites survive and lay the usual number of normal eggs, from which larvae hatch and develop into protonymphs, this indicates no activity.

SMILES | concentration that completely inhibits the development of protonymphs (after 5 days) [ppm] | type of effect (points 1-4) (after 5 days) | Type of activity | EC100 (minimum dosage to reach 100% mortality) [ppm] | concentration to reach an activity of type 1 (activity of type 1) | concentration to reach a considerable efficacy (only activity of type 3) (activity of type 3) | Type of activity (listed as Enantiomer B) | type of effect (points 1-4) at concentrations up to 10 ppm (concentrations up to 10 ppm) | EC100 (minimum dosage to reach 100% mortality) (listed as Enantiomer B)
Fc1cccc(F)c1C1=NC(c2ccc(-c3ccc(C(F)(F)F)cc3)cc2)CO1 (racemic) [Racemate, 2-(2,6-difluorophenyl)-4-(4′-trifluoromethylbiphenyl-4-yl)-4,5-dihydrooxazole, reference compound] | ≥ 0.02 | 1 | 1 | 0.2 |  |  |  |  | 
Fc1cccc(F)c1C1=NC(c2ccc(-c3ccc(C(F)(F)F)cc3)cc2)CO1 (single isomer, unassigned) [1.2, 2-(2,6-difluoro-phenyl)-4-(4′-trifluoromethylbiphenyl-4-yl)-4,5-dihydro-oxazole] |  |  |  |  | at least 32 ppm | at least 20 ppm | 3) and 1 | 4 | 20.0 ppm and 32.0 ppm
